Assay results: patent US10501421B1, “Substituted benzimidazoles as modulators of Ras signaling” (VANDERBILT UNIVERSITY, priority 2017, dated 2019)
Structures can show the parent of a compound that is named as a salt.

Tests used:
Son of Sevenless (SOS) = target: T1, Son of Sevenless (SOS) (Homo sapiens, UniProt Q07889); experiment: Binding to SOS, fluorescence polarization anisotropy (FPA) probe displacement; settings: displacement of FITC-conjugated probe (Example 285), affinity calculated from IC50
T1 sequence (Q07889 564-1049 limits assumed): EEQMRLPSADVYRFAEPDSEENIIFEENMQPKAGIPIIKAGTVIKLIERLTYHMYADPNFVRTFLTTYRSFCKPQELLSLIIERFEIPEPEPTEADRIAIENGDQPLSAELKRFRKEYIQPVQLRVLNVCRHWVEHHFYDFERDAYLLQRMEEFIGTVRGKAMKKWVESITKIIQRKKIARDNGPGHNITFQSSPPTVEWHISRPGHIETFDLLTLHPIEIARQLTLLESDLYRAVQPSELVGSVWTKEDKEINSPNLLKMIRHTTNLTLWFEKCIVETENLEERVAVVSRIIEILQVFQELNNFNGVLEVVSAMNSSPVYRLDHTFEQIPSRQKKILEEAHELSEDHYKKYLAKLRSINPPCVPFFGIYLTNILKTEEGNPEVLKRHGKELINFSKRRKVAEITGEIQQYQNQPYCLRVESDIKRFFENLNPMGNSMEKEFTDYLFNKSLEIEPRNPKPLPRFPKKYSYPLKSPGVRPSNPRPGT
Procedure, shortened: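 A FITC-conjugated probe compound was incubated with SOS in buffer, and its displacement was tracked as a change in fluorescence anisotropy across a test-compound dose range. IC50 came from a four-parameter variable-slope fit, and binding affinity was calculated from it.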

[1] = target: Ras GEF SOS (Son of Sevenless) (Homo sapiens, UniProt Q07889); experiment: SOS-mediated nucleotide exchange on Ras (BODIPY-GDP fluorescence); assay type: biochemical; settings: SOS-mediated exchange of BODIPY-GDP for GTP on Ras
Procedure, shortened: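 Ras loaded with BODIPY-GDP was mixed in buffer with test compound, then GTP and SOS. Fluorescence change from labeled GDP/GTP exchange was followed over time, and rates came from single-exponential fits. EC50 came from a four-parameter fit of mean rate against compound concentration.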

Ras GEF SOS (Son of Sevenless), sequence (P01112 1-166 partner limits assumed, one chain of several): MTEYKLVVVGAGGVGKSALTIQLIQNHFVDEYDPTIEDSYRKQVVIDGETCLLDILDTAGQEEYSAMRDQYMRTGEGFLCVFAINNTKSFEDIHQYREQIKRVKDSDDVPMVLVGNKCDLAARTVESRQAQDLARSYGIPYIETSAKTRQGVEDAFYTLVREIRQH

SMILES	Ki (Son of Sevenless (SOS)) [nM]	EC50 [1] [nM]
CCC[C@H](N)c1cccc2c1nc(N1CCNCC1)n2Cc1ccc(F)c(Cl)c1 [Example 165, (S)-1-(1-(3-chloro-4-fluorobenzyl)-2-(piperazin-1-yl)-1H-benzo[d]imidazol-4-yl)butan-1-amine trifluoroacetate]	1000 to 5000	1000 to 5000
CC(C)c1ccc(-n2nccc2-c2cc(Cl)cc3c2nc(N2CCNCC2)n3Cc2ccc(F)c(Cl)c2)cc1 [Example 169, 6-chloro-1-(3-chloro-4-fluorobenzyl)-4-(1-(4-isopropylphenyl)-1H-pyrazol-5-yl)-2-(piperazin-1-yl)-1H-benzo[d]imidazole trifluoroacetate]	> 5000	1000 to 5000
Cc1cc2c(nc(N3CCNCC3)n2Cc2ccc(F)c(Cl)c2)c(-c2ccnn2-c2ccccc2)c1C [Example 171, 1-(3-chloro-4-fluorobenzyl)-5,6-dimethyl-4-(1-phenyl-1H-pyrazol-5-yl)-2-(piperazin-1-yl)-1H-benzo[d]imidazole trifluoroacetate]	1000 to 5000	1000 to 5000
Cc1cc2c(nc(N3CCNCC3)n2Cc2ccc(F)c(Cl)c2)c(-c2ccnn2-c2ccc(Br)cc2)c1C [Example 172, 4-(1-(4-bromophenyl)-1H-pyrazol-5-yl)-1-(3-chloro-4-fluorobenzyl)-5,6-dimethyl-2-(piperazin-1-yl)-1H-benzo[d]imidazole trifluoroacetate]	1000 to 5000	1000 to 5000
Cc1cc2c(nc(N3CCNCC3)n2Cc2ccc(F)c(Cl)c2)c(-c2ccnn2-c2ccc(C(C)C)cc2)c1C [Example 173, 1-(3-chloro-4-fluorobenzyl)-4-(1-(4-isopropylphenyl)-1H-pyrazol-5-yl)-5,6-dimethyl-2-(piperazin-1-yl)-1H-benzo[d]imidazole trifluoroacetate]	> 5000	5000 to 30000
Cc1cc(Cn2c(N3CCNCC3)nc3c(-c4ccnn4-c4cccc5ccccc45)cc(Cl)cc32)cc(C)c1F [Example 177, 6-chloro-1-(4-fluoro-3,5-dimethylbenzyl)-4-(1-(naphthalen-1-yl)-1H-pyrazol-5-yl)-2-(piperazin-1-yl)-1H-benzo[d]imidazole trifluoroacetate]	1000 to 5000	30000 to 100000
Cc1cc(Cn2c(N3CCNCC3)nc3c(-c4ccnn4-c4ccc(C(C)(C)C)cc4)cc(Cl)cc32)cc(C)c1F [Example 178, 4-(1-(4-(tert-butyl)phenyl)-1H-pyrazol-5-yl)-6-chloro-1-(4-fluoro-3,5-dimethylbenzyl)-2-(piperazin-1-yl)-1H-benzo[d]imidazole trifluoroacetate]	> 5000	5000 to 30000
COC(=O)c1cnn(CCN(C)C)c1-c1cc(C)cc2c1nc(N1CCNCC1)n2Cc1ccc(F)c(Cl)c1 [Example 180, methyl 5-(1-(3-chloro-4-fluorobenzyl)-6-methyl-2-(piperazin-1-yl)-1H-benzo[d]imidazol-4-yl)-1-(2-(dimethylamino)ethyl)-1H-pyrazole-4-carboxylate]	1000 to 5000	< 1000
Cc1cc(Cn2c(N3CCNCC3)nc3c(-c4ccccc4C#Cc4ccccc4)cc(Cl)cc32)cc(C)c1F [Example 182, 6-chloro-1-(4-fluoro-3,5-dimethylbenzyl)-4-(2-(phenylethynyl)phenyl)-2-(piperazin-1-yl)-1H-benzo[d]imidazole trifluoroacetate]	> 5000	1000 to 5000
Cc1ccccc1C#Cc1ccccc1-c1cc(Cl)cc2c1nc(N1CCNCC1)n2Cc1cc(C)c(F)c(C)c1 [Example 185, 6-chloro-1-(4-fluoro-3,5-dimethylbenzyl)-2-(piperazin-1-yl)-4-(2-(o-tolylethynyl)phenyl)-1H-benzo[d]imidazole trifluoroacetate]	> 5000	5000 to 30000
Cc1cc(N2CCC(N)CC2)c2nc(N3CCNCC3)n(Cc3cc(C)c(F)c(C)c3)c2c1 [Example 188, 1-(1-(4-fluoro-3,5-dimethylbenzyl)-6-methyl-2-(piperazin-1-yl)-1H-benzo[d]imidazol-4-yl)piperidin-4-amine trifluoroacetate]	500 to 1000	1000 to 5000
Cc1cc(N2CCC(CN)C2)c2nc(N3CCNCC3)n(Cc3cc(C)c(F)c(C)c3)c2c1 (stereo not shown) [Example 189, (1-(1-(4-fluoro-3,5-dimethylbenzyl)-6-methyl-2-(piperazin-1-yl)-1H-benzo[d]imidazol-4-yl)pyrrolidin-3-yl)methanamine trifluoroacetate]	500 to 1000	1000 to 5000

Next, values leading:

Ki (Son of Sevenless (SOS)) [nM]	EC50 [1] [nM]	SMILES
500 to 1000	1000 to 5000	C=C[C@@H](N)c1cc(C)cc2c1nc(N1CCNCC1)n2Cc1cc(C)c(F)c(C)c1 [Example 163, (R)-1-(1-(4-fluoro-3,5-dimethylbenzyl)-6-methyl-2-(piperazin-1-yl)-1H-benzo[d]imidazol-4-yl)prop-2-en-1-amine trifluoroacetate]
500 to 1000	< 1000	N[C@H](c1cc(Cl)cc2c1nc(N1CCNCC1)n2Cc1ccc(F)c(Cl)c1)C1CC1 [Example 167, (S)-(6-chloro-1-(3-chloro-4-fluorobenzyl)-2-(piperazin-1-yl)-1H-benzo[d]imidazol-4-yl)(cyclopropyl)methanamine trifluoroacetate]
500 to 1000	1000 to 5000	COc1ccc(-n2nccc2-c2cc(Cl)cc3c2nc(N2CCNCC2)n3Cc2ccc(F)c(Cl)c2)cc1 [Example 168, 6-chloro-1-(3-chloro-4-fluorobenzyl)-4-(1-(4-methoxyphenyl)-1H-pyrazol-5-yl)-2-(piperazin-1-yl)-1H-benzo[d]imidazole trifluoroacetate]
< 500	1000 to 5000	CC(C)Cn1nccc1-c1cc(Cl)cc2c1nc(N1CCNCC1)n2Cc1ccc(F)c(Cl)c1 [Example 174, 6-chloro-1-(3-chloro-4-fluorobenzyl)-4-(1-isobutyl-1H-pyrazol-5-yl)-2-(piperazin-1-yl)-1H-benzo[d]imidazole trifluoroacetate]
500 to 1000	< 1000	CN(C)CCn1nccc1-c1cc(Cl)cc2c1nc(N1CCNCC1)n2Cc1ccc(F)c(Cl)c1 [Example 175, 2-(5-(6-chloro-1-(3-chloro-4-fluorobenzyl)-2-(piperazin-1-yl)-1H-benzo[d]imidazol-4-yl)-1H-pyrazol-1-yl)-N,N-dimethylethan-1-amine trifluoroacetate]
< 500	1000 to 5000	CC(C)n1nccc1-c1cc(Cl)cc2c1nc(N1CCNCC1)n2Cc1ccc(F)c(Cl)c1 [Example 176, 6-chloro-1-(3-chloro-4-fluorobenzyl)-4-(1-isopropyl-1H-pyrazol-5-yl)-2-(piperazin-1-yl)-1H-benzo[d]imidazole trifluoroacetate]
500 to 1000	1000 to 5000	Cc1cc(Cn2c(N3CCNCC3)nc3c(-c4ccccc4C#Cc4ccccc4Cl)cc(Cl)cc32)cc(C)c1F [Example 183, 6-chloro-4-(2-((2-chlorophenyl)ethynyl)phenyl)-1-(4-fluoro-3,5-dimethylbenzyl)-2-(piperazin-1-yl)-1H-benzo[d]imidazole trifluoroacetate]
500 to 1000	1000 to 5000	Cc1cc(Cn2c(N3CCNCC3)nc3c(-c4c(C)cccc4C#Cc4ccccc4Cl)cc(Cl)cc32)cc(C)c1F [Example 184, 6-chloro-4-(2-((2-chlorophenyl)ethynyl)-6-methylphenyl)-1-(4-fluoro-3,5-dimethylbenzyl)-2-(piperazin-1-yl)-1H-benzo[d]imidazole trifluoroacetate]
